Measured values taken from patent US11846639B2, “Ligand discovery for T cell receptors” (priority 2014, dated 2023).
Residues, ends and D or L forms follow the SMILES beside them.

Legend:
5cc7 TCR = experiment: Surface plasmon resonance affinity of peptide-I-Ek for 5cc7 TCR; format: binding, murine; details: SPR, peptide exchanged into soluble I-Ek
Description: Refolded Murine TCRs for crystallography and affinity measurements. Refolded 2B4, 226, and 5cc7 were created essentially as described. For […] and 5c2 crystal structures, the 5c1 and 5c2 peptides were fused to the N-terminus of 5cc7β via a 10-amino acid GlySer linker. TCRs were purified via size exclusion chromatography and assayed via SDS-PAGE to ensure 1:1 α:β stoichiometry. If there were an excess of TCRβ, ββ homodimer was purified away from αβ heterodimer via ion exchange chromatography on a MonoQ column (GE Healthcare) using a 20 mM Tris pH 8/20 mM Tris pH8+ 500 mM NaCl buffer system. Proteins were then reexchanged into HBS for further use.
Surface plasmon resonance. Affinity measurements for peptides bound to I-Ek for 226, 2B4, and 5cc7 TCRs were determined via surface plasmon resonance on a Biacore T100 (GE Healthcare). 10 μM of peptide of interest was added to biotinylated Clip-I-Ek. 1 U thrombin/100 μg MHC was added and incubated at 37°. After 1 hour, pH was lowered by adding sodium cacodylate pH 6.2 to 30 mM and sample was incubated at 37° overnight. Samples were then neutralized with 40 mM HEPES pH 7.2 and stored at 4° until use. pMHC exchanged with the peptide of interest were bound to a Biacore SA chip (GE Healthcare) at a low surface density (100-200 RU) to ensure no recapture of analyte. I-Ek exchanged with a null peptide (MCC K99E) was used as the reference surface. […]

5cc7 T cell blasts = format: cell-based, mice; details: 5cc7 T cells; peptide presented by I-Ek; read-out: signaling potency (EC50)
Protocol: Selection of library derived I-Ek peptides for further characterization. Peptides were chosen from the deep sequencing data across a wide range of sequence prevalence for further study via SPR, activity, and structural characterization. Peptides were chosen that were recognized by 1, 2, or all 3 I-E^k reactive TCRs. All peptides were tested for activity with both 2B4 and 5cc7 T cell clones regardless of for which TCR they were initially selected. A subset of peptides was chosen to further characterize via SPR. The 2A peptide that was structurally characterized in FIG. 5A was discovered by manual curation of an I-Ek peptide library. 2A is highly homologous to peptides represented in the deep sequencing data and co-clusters with MCC.
Activity assay for I-Ek-selected peptides. Lymphocytes were isolated from 5cc7 or 2B4 TCR transgenic Rag−/− mice. […] CD69 upregulation was measured using an Accuri C6 flow cytometer with an autosampler (BD) by measuring CD69 MFI in the CD4+ gate. Data was then normalized and EC50s measured via Prism. IL-2 release was measured in technical triplicates via anti-IL-2 Elisa (Ready-setgo mouse IL-2 ELISA kit, eBioscience 88-7024), as recommended by the manufacturer. […] Absorbance was measured via SpectraMax Paradigm (Molecular Devices), with EC50 determined via Graphpad Prism.

With `CC[C@H](C)[C@H](NC(=O)[C@H](CC(C)C)NC(=O)[C@H](CC(=O)O)NC(=O)[C@H](C)N)C(=O)N[C@@H](C)C(=O)N[C@@H](Cc1ccc(O)cc1)C(=O)N[C@@H](CC(C)C)C(=O)N[C@@H](CCCCN)C(=O)N[C@@H](CCC(N)=O)C(=O)N[C@@H](C)C(=O)N[C@H](C(=O)N[C@@H](CCCCN)C(=O)O)[C@@H](C)O` [MCC, reference compound] (H-ADLIAYLKQATK-OH; N-terminus and C-terminus assumed) the Kd (5cc7 TCR) was 41 µM.
`CC(C)C[C@H](NC(=O)[C@H](Cc1ccccc1)NC(=O)[C@H](Cc1ccccc1)NC(=O)[C@H](C)NC(=O)[C@@H](NC(=O)CNC(=O)[C@H](CC(N)=O)NC(=O)[C@H](C)N)C(C)C)C(=O)N[C@H](C(=O)N1CCC[C@H]1C(=O)N[C@@H](Cc1ccccc1)C(=O)N[C@@H](CCCCN)C(=O)O)[C@@H](C)O` [compound 50] (H-ANGVAFFLTPFK-OH; N-terminus and C-terminus assumed) was tested, and the Kd (5cc7 TCR) was 115 µM and the EC50 (5cc7 T cell blasts) was 1.5 µM.
